N[C@@H](Cc1ccccc1)C(=O)O
solubility (mole fraction)
Details | 288.15 K | 293.15 K | 298.15 K | 303.15 K | 308.15 K
in ethanol | 8.9e-05 | 9.96e-05 | 0.000116 | 0.000134 | 0.00016
in methanol | 0.00032 | 0.000416 | 0.000563 | 0.00065 | 0.000743
in water | 0.00219 | 0.00247 | 0.00277 | 0.00312 | 0.00348

From BigSolDB 2.1
